# Test results published in US20090017103A1, “Antisense oligonucleotides for prevention of metastasis formation of cancer cells” (priority 2003, published 2009).
# Marks after values point to notes of the source that are not given here.
# Key:
# Assay type in all cases: cell-based, human
# osteonectin = assay: Western blot of osteonectin expression after exposure to ASOs; conditions: single exposure, lipofectamine, 10 μM
# bone sialoprotein II = assay: Western blot of bone sialoprotein II expression after exposure to ASOs; conditions: 10 μM
# [1] = system: MDA-MB-231 breast cancer cells; assay: Clonogenicity assay (colony formation); conditions: for inhibition of colony formation (colony growth inhibition): single exposure
# Description: For determining the response of MDA-MB-231 colony formation to exposure with antisense oligonucleotides and erucylphospho-NNN-trimethylpropanolamine (ErPC3) the following procedure was used. MDA-MB-231 cells were treated for various periods of time (see below), harvested and counted. Cells (5000) were then transferred into semi-solid medium containing 0.8t RPMI-methylcellulose and 30% FBS. Cells were plated onto 3.5 cm Petri-dishes (1 ml/dish) (NUNC, Wiesbaden, Germany) and usual cell culture conditions (37° C., 5% CO2 in humidified air) were applied. Colony formation (clusters of 30 or more cells) was visualized by staining with 3-[4,5-dimethylthiazol-2-yl]-2,5-diphenyltetrazolium-bromide (MTT; Serva, Heidelberg, Germany) and the resulting dark blue colonies were scored by an inverted microscope after 5-7 days. At least three dishes per treatment protocol were used.
# Pending on the duration of treatment, 1×10^5-3×10^5 cells were transferred onto 6 well plates (Nunc, Wiesbaden, Germany) and grown for 24 h. For transfection, ASO stock solutions were prepared in medium without FBS. According to the protocol of the manufacturer, the respective ASO stock solution was mixed with lipofectamine to allow ASO-liposome complexes to form. To 200 μl medium containing ASO quantities resulting in 10 μM (Western blot and in vivo model) and in 5, 10, or 20 μM (clonogenicity assay) final ASO-concentrations, an equal volume of medium without FBS was added containing 5, 10, or 20 μl lipofectamine, respectively. In addition to the ASO treatment, a NSO control (20 μM final concentration with 20 μl lipofectamine) and a lipofectamine control (20 μl) were used. […] After 12 h the medium was changed, and cells were further grown for 48-72 h. In the case of a sequential combination treatment this first cycle was repeated with the respective combination partner.
# The alkylphosphocholine ErPC3 was synthesized and provided by Prof. H. Eibl (MPI of Biophysical Chemistry, Göttingen, FRG). For treating MDA-MB-231 cells, ErPC3 which was kept as stock solution in ethanol and PBS (10 mM; ratio of diluents 1:1; V:V), was diluted in PBS resulting in final concentrations of 10, 14, and 20 μM. The medium containing ErPC3 was changed after 24 h in all experiments and the cells were further grown for 48-72 h without ErPC3 (for details of sequential exposure see below).
# Sequential combination treatment consisted of two or three treatment cycles. The two cycle treatment started either with the ASO and was followed by ErPC3 or was performed with the reverse sequence. The three cycle treatment started either with two cycles of ASO followed by ErPC3 or an initial exposure to ErPC3 was followed by two cycles with an ASO.
# Colony counts are presented as mean with corresponding standard deviation. For comparison of incidences between treatment groups the x^2 test was used and for comparison of the lesion sizes the Kruskal-Wallis test was applied. P values≦0.05 were considered significant. Predicted theoretical values of combinations were calculated according to the equation: C=a×b/100, where a and b are colony counts in percent of untreated control obtained in response to single agents. For each concentration applied theoretical values were calculated and compared with the real value of the combination. In addition, isobologram and multiple drug effect analysis was examined by a suitable program (CalcuSyn, Biosoft, Ferguson, USA) to study the nature of the interaction observed. For this purpose, the dose-effect curve for each drug alone was determined based on the experimental observations using the median-effect principle; the combination index (CI) for each combination was then calculated according to the following equation:
# CI=(D)1/(Dx)1+(D)2/(Dx)2+(D1)×(D2)/(Dx)1×(Dx)2
# where (D)1 and (D)2 are the doses of drug 1 and drug 2 that have x effect when used in combination and (Dx)1 and (Dx)2 are the doses of drug 1 and drug 2 that have the same x effect when used alone. […]
# [2] = MDA-MB231^F (growing without FBS)
# [3] = MDA-MB231, single exposure, electroporation
# [4] = MDA-MB231, single exposure, lipofectamine
# [5] = MDA-MB231^F (growing without FBS), single exposure, lipofectamine
# [6] = MDA-MB435s, single exposure, lipofectamine
# [7] = MDA-MB231, twofold exposure, lipofectamine
Compound,osteonectin expression in relation to untreated control (100%) (osteonectin; MDA-MB231),osteonectin expression in relation to untreated control (100%) (osteonectin; [2]) [%],osteonectin expression in relation to untreated control (100%) (osteonectin; MDA-MB435s) [%],bone sialoprotein II expression in relation to untreated control (100%) (bone sialoprotein II; [3]) [%],bone sialoprotein II expression in relation to untreated control (100%) (bone sialoprotein II; [4]) [%],bone sialoprotein II expression in relation to untreated control (100%) (bone sialoprotein II; [5]) [%],bone sialoprotein II expression in relation to untreated control (100%) (bone sialoprotein II; [6]) [%],other results
"5′- TGTACTTGTCATTGTCCAGG-3′ (antisense TGTACTTGTCATTGTCCAGG; all phosphorothioate, sugars by position and methylation of C not given here) [ASO-ON-7]",50%,32,64,,,,,
"5′-ATTTTGGTGATTGCTTCCTC-3′ (antisense ATTTTGGTGATTGCTTCCTC; all phosphorothioate, sugars by position and methylation of C not given here) [ASO-BSPII-2]",,,,94,38,94,26,
"5′-AGGTCACAGGTCTCGAAAAA-3′ (antisense AGGTCACAGGTCTCGAAAAA; all phosphorothioate, sugars by position and methylation of C not given here) [ASO-ON-6]",52%,44,56,,,,,
"CCCCCCCC/C=C\CCCCCCCCCCCCOP(=O)([O-])OCCC[N+](C)(C)C [ErPC3, Erucylphospho-NNN-trimethylpropanolamine, reference compound]",,,,,,,,"% Control ([1]; Exp. III a, 14 μM): 52%; Mean colony no. ([1]; Exp. III a, 14 μM, control 456): 239^5); % Control ([1]; Experiment I, single treatment, 10 μM): 89%; Mean colony no. ([1]; Experiment I, single treatment, 10 μM, control 778): 691^8); % Control ([1]; Experiment I, single treatment, 14 μM): 55%; Mean colony no. ([1]; Experiment I, single treatment, 14 μM, control 778): 425^7); % Control ([1]; Experiment I, single treatment, 20 μM): 22%; Mean colony no. ([1]; Experiment I, single treatment, 20 μM, control 778): 169; % Control ([1]; Experiment II, single treatment, 10 μM): 88%; Mean colony no. ([1]; Experiment II, single treatment, 10 μM, control 705): 621^8); % Control ([1]; Experiment II, single treatment, 14 μM): 55%; Mean colony no. ([1]; Experiment II, single treatment, 14 μM, control 705): 385^7); % Control ([1]; Experiment II, single treatment, 20 μM): 25%; Mean colony no. ([1]; Experiment II, single treatment, 20 μM, control 705): 173; % Control ([1]; Experiment III b, 14 μM): 59%; Mean colony no. ([1]; Experiment III b, 14 μM, control 517): 311^5); inhibition of colony formation (colony growth inhibition) ([1]; 10 μM): 11%; inhibition of colony formation (colony growth inhibition) ([1]; 14 μM): 45%; inhibition of colony formation (colony growth inhibition) ([1]; 20 μM): 78%"
"5′-TGATTGCTTCCTCTGGCAGT-3′ (antisense TGATTGCTTCCTCTGGCAGT; all phosphorothioate, sugars by position and methylation of C not given here) [ASO-BSPII-1]",,,,78,45,58,16,bone sialoprotein II expression in relation to untreated control (100%) (bone sialoprotein II; [7]): 19^2) %
"5′-TTGAAGTTTCTCTTGATTAA-3′ (antisense TTGAAGTTTCTCTTGATTAA; all phosphorothioate, sugars by position and methylation of C not given here) [ASO-ON-10]",46%,35,46,,,,,
"5′-TCACTGGTGGTGGTAGTAAT-3′ (antisense TCACTGGTGGTGGTAGTAAT; all phosphorothioate, sugars by position and methylation of C not given here) [ASO-BSPII-10]",,,,40,33,30,39,
"5′-ATTCTTCATTGTTTTCTCCT-3 (antisense ATTCTTCATTGTTTTCTCCT; all phosphorothioate, sugars by position and methylation of C not given here) [ASO-BSPII-4]",,,,55,73,109,26,
5′-TTCCGGTCTCTGTGGTGTCT-3′ [ASO-BSPII-7],,,,25,58,37,51,bone sialoprotein II expression in relation to untreated control (100%) (bone sialoprotein II; [7]): 22%
"5′-CCATCATCAAATTCTCCTAC-3′ (antisense CCATCATCAAATTCTCCTAC; all phosphorothioate, sugars by position and methylation of C not given here) [ASO-ON-2]",61%,17,64,,,,,
"5′-CTGCCTTCCGGTCTCTGTGG-3′ (antisense CTGCCTTCCGGTCTCTGTGG; all phosphorothioate, sugars by position and methylation of C not given here) [ASO-BSPII-8]",,,,34,62,101,32,bone sialoprotein II expression in relation to untreated control (100%) (bone sialoprotein II; [7]): 25%
"5′-AGATCCAGGCCCTCATGGTG -3′ (antisense AGATCCAGGCCCTCATGGTG; all phosphorothioate, sugars by position and methylation of C not given here) [ASO-ON-1]",39^3) %,44,46,,,,,
"5′-CTTCATTGTTTTCTCCTTCA-3′ (antisense CTTCATTGTTTTCTCCTTCA; all phosphorothioate, sugars by position and methylation of C not given here) [ASO-BSPII-3]",,,,44,97,93,22,
"5′-CTTCATCACTTTCCTTCTCT-3′ (antisense CTTCATCACTTTCCTTCTCT; all phosphorothioate, sugars by position and methylation of C not given here) [ASO-BSPII-5]",,,,63,27,101,41,bone sialoprotein II expression in relation to untreated control (100%) (bone sialoprotein II; [7]): 46%
"5′-ACTGGTGGTGGTAGTAATTC-3′ (antisense ACTGGTGGTGGTAGTAATTC; all phosphorothioate, sugars by position and methylation of C not given here) [ASO-BSPII-9]",,,,46,35,84,49,
